# Measurements as given in patent publication US6410792B1, “Amide derivatives and methods for using the same as selective neuropeptide Y receptor antagonists” (Bayer Corporation, priority 1997, dated 2002).
# Where two headings read alike, the source gives them in different places.
# What was measured:
# Human NPY5 receptor = target: T1, Human NPY5 receptor (Homo sapiens, UniProt Q15761); assay: Human NPY5 receptor binding assay ([125I]PYY, membrane protein)
# T1 sequence (Q15761 1-445): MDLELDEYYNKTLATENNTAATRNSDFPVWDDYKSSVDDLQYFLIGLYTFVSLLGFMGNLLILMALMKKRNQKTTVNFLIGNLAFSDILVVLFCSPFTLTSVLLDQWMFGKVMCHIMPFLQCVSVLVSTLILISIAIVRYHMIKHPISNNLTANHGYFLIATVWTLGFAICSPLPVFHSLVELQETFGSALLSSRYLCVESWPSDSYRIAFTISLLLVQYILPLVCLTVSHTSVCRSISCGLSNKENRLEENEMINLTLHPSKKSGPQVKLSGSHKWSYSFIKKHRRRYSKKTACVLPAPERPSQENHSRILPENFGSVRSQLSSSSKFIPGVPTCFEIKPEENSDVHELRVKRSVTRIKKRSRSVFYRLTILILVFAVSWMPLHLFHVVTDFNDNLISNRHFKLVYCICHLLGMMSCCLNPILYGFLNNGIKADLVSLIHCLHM
# Outline: (§1)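 Bound [125I]PYY is measured by gamma counting or liquid scintillation after vacuum filtration and ice-cold washes. Before that, membranes, 75-100 pM tracer and compound are incubated 2 hours at room temperature, with nonspecific binding defined by 1 μM PYY.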
# Rat NPY5 receptor [1] = target: T2, Rat NPY5 receptor (Rattus norvegicus, UniProt Q63634); assay: Rat NPY5 cyclase assay (in vitro functional assay, forskolin-stimulated adenylate cyclase, cAMP); format: cell-based; details: percentage of forskolin-stimulated adenylate cyclase
# T2 sequence (Q63634 1-445): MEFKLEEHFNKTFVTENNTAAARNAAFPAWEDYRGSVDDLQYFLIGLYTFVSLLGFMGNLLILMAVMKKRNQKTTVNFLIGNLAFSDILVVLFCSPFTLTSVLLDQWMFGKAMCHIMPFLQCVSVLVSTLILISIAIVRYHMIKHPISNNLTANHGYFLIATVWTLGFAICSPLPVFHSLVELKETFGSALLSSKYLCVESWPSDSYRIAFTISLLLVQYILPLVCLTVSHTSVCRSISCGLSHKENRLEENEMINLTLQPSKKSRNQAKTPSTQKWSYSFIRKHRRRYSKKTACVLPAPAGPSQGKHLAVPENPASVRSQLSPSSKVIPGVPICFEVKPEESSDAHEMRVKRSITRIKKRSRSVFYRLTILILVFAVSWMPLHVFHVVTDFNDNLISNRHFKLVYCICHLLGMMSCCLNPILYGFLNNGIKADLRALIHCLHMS
# Protocol: D. Rat NYP5 Cyclase Assay (In Vitro Functional Assay)
# Cells stably expressing the rat NPY5 receptor are resuspended in serum-free DMEM containing 10 mM HEPES (pH 7.4) and 1 mM isobutylmethylxanthine (IBMX). […] forskolin and drug dilution are then added to the cells. After a 20 minute incubation of the samples at 37° C, the assay is stopped by placing the samples in boiling water for 3 minutes. The cAMP produced in each sample is quantitated with a radioimmunoassay kit (NEN DuPont). Data are expressed as a percentage of forskolin-stimulated adenylate cyclase.
# Rat NPY5 receptor [2] = target: T2, Rat NPY5 receptor; assay: Rat NPY5 receptor binding assay ([125I]PYY, membrane protein)
# Outline: as §1
# Y2 receptor = target: T3, Y2 receptor (Homo sapiens, UniProt P49146); assay: Y2 receptor binding assay ([125I]PYY, membrane protein); details: membrane protein, read-out: hNPY2 IC50
# T3 sequence (P49146 1-381): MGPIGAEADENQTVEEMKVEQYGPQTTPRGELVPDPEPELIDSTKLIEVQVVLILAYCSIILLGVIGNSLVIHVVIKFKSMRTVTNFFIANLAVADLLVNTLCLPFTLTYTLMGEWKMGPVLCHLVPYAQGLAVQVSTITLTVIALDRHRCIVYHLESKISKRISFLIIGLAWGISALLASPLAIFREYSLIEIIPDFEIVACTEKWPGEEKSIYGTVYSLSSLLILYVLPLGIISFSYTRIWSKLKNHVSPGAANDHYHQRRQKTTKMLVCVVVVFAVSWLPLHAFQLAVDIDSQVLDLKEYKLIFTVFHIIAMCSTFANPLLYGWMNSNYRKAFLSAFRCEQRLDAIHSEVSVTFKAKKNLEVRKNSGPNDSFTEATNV
# Outline: (§2)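 Filtration binding with membrane protein and drug dilution, 2 h at room temperature with mixing, radioactivity counted by gamma or scintillation. Y2: 25 pM [125I]PYY in Krebs-Ringer bicarbonate pH 7.4 with 0.01% BSA, nonspecific by 1 μM NPY. Y4/PP1: 50 pM [125I]hPP in HEPES-buffered saline pH 7.4 with protease inhibitors and 0.3% BSA, nonspecific by 1 μM hPP.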
# human Y4/PP1 receptor = human Y4/PP1 receptor (Homo sapiens, UniProt P50391); assay: Human Y4/PP1 receptor binding assay ([125I]human PP, membrane protein); details: [125I]human PP, membrane protein; read-out: hNPY4 IC50
# Outline: as §2
# Human NPY1 receptor = target: T4, Human NPY1 receptor (Homo sapiens, UniProt P25929); assay: Human NPY1 receptor binding assay ([125I]PYY, SK-N-MC cells); details: [125I]PYY, SK-N-MC cells; read-out: hNPYI IC50
# T4 construct: host or cells: SK-N-MC cells
# T4 sequence (P25929 1-384): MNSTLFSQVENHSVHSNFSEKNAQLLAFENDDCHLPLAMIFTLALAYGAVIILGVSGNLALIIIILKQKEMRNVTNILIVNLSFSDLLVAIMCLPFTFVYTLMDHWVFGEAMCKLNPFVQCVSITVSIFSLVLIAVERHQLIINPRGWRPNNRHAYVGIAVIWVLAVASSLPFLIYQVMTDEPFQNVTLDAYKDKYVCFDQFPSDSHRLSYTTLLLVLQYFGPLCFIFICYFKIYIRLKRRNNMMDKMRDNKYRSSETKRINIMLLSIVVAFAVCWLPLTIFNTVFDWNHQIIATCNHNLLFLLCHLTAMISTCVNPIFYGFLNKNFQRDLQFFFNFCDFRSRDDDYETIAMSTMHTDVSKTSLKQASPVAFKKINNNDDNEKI
# Outline: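 Confluent SK-N-MC cells preincubated 30 min at room temperature in serum-free DMEM/25 mM HEPES pH 7.3 with BSA, bacitracin and PMSF, then incubated 3 h at room temperature with compound and ~50 pM [125I]PYY. Nonspecific binding defined with 1 μM NPY; bound radioactivity counted after Triton X-100 lysis.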
# [3] = [125I]PYY, read-out: hNPY5 IC50
# [4] = [125I]PYY, read-out: rNPY5 IC50
# Chain of human Y4/PP1 receptor (P50391 whole entry): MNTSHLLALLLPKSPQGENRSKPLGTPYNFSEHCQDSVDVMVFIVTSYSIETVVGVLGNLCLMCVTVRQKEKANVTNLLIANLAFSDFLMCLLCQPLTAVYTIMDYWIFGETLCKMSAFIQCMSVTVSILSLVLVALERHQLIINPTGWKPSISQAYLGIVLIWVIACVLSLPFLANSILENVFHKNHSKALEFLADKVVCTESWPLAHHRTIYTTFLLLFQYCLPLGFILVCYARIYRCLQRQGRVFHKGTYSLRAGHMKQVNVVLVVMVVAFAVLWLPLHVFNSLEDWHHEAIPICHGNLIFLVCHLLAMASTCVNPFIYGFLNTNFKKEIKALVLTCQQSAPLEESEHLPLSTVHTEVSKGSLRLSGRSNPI
rNPY5 % FSAC (10 μM) (Rat NPY5 receptor [1]; 10 μM) [%],IC50 (Human NPY5 receptor; [3]) [µM],IC50 (human Y4/PP1 receptor) [µM],IC50 (Rat NPY5 receptor [2]; [4]) [µM],IC50 (Y2 receptor; [125I]PYY) [µM],IC50 (Human NPY1 receptor) [µM],melting point [°C],SMILES,"IC50 (Human NPY5 receptor; hNPY5 IC50, [125I]PYY binding) [µM]","activity at 10 µM (Rat NPY5 receptor [1]; 20 min, compound at 10 μM, read-out: rNPY5 % FSAC (10 μM)) [%]","IC50 (Rat NPY5 receptor [2]; rNPY5 IC50, [125I]PYY binding) [µM]",IC50 (Y2 receptor; [125I]PYY binding) [µM],"IC50 (Human NPY5 receptor; hNPY5 IC50, [125I]PYY) [µM]","IC50 (Rat NPY5 receptor [2]; rNPY5 IC50, [125I]PYY) [µM]"
–,–,–,–,–,–,–,"O=C(CN1CCC(O)(c2ccccc2)CC1)Nc1ccc(C2CCCCC2)cc1 [Compound 26, N-(4-Cyclohexyl-phenyl)-2-(4-hydroxy-4-phenyl-piperidin-1-yl)-acetamide]",0.093,111,0.037,> 5,–,–
90,–,–,–,–,–,–,Cl.O=C(CN1CCC(n2c(=O)[nH]c3ccccc32)CC1)Nc1ccc(C(=O)C(=O)c2ccccc2)cc1 [Compound 265],–,–,–,–,–,–
–,0.38,> 5,0.313,> 5,> 5,196 to 197,"Cl.O=C(CN1CCC(n2c(=O)[nH]c3ccccc32)CC1)NCC1CCCCC1 [Compound 282, N-Cyclohexylmethyl-2-[4-(2-oxo-2,3-dihydro-benzoimidazol-1-yl)-piperidin-1-yl]-acetamide; hydrochloride]",–,–,–,–,–,–
–,> 10,> 5,> 10,> 5,> 5,237 to 238,"CC(C)OCCCNC(=O)CN1CCC(n2c(=O)[nH]c3ccccc32)CC1.Cl [Compound 283, N-(3-Isopropoxy-propyl)-2-[4-(2-oxo-2,3-dihydro-benzoimidazol-1-yl)-piperidin-1-yl]-acetamide; hydrochloride]",–,–,–,–,–,–
–,> 10,> 5,> 10,> 5,> 5,77 to 78,"COCCNC(=O)CN1CCC(n2c(=O)[nH]c3ccccc32)CC1 [Compound 284, N-(2-Methoxy-ethyl)-2-[4-(2-oxo-2,3-dihydro-benzoimidazol-1-yl)-piperidin-1-yl]-acetamide]",–,–,–,–,–,–
–,0.044,> 5,0.035,> 5,> 5,204,"Cl.O=C(CN1CCC(n2c(=O)[nH]c3ccccc32)CC1)Nc1ccc2c(c1)C(=O)c1ccccc1-2 [Compound 306, 2-[4-(2-Oxo-2,3-dihydro-benzoimidazol-1-yl)-piperidin-1-yl]-N-(9-oxo-9H-fluoren-2-yl)-acetamide; hydrochloride]",–,–,–,–,–,–
–,0.36,> 5,0.3,> 5,> 5,205,"O=C(CN1CCC(n2c(=O)[nH]c3ccccc32)CC1)Nc1cccc2c1-c1ccccc1C2=O [Compound 308, 2-[4-(2-Oxo-2,3-dihydro-benzoimidazol-1-yl)-piperidin-1-yl]-N-(9-oxo-9H-fluoren-4-yl)-acetamide]",–,–,–,–,–,–
–,0.034,> 5,0.034,> 5,> 5,186,"Cl.O=C(CN1CCC(n2c(=O)[nH]c3ccccc32)CC1)Nc1ccc2oc3ccccc3c2c1 [Compound 310, N-Dibenzofuran-2-yl-2-[4-(2-oxo-2,3-dihydro-benzoimidazol-1-yl)-piperidin-1-yl]-acetamide; hydrochloride]",–,–,–,–,–,–

SMILES,rNPY5 % FSAC (10 μM) (Rat NPY5 receptor [1]; 10 μM) [%],IC50 (Human NPY5 receptor; [3]) [µM],IC50 (human Y4/PP1 receptor) [µM],IC50 (Rat NPY5 receptor [2]; [4]) [µM],IC50 (Y2 receptor; [125I]PYY) [µM],IC50 (Human NPY1 receptor) [µM],melting point [°C],"IC50 (Human NPY5 receptor; hNPY5 IC50, [125I]PYY binding) [µM]","activity at 10 µM (Rat NPY5 receptor [1]; 20 min, compound at 10 μM, read-out: rNPY5 % FSAC (10 μM)) [%]","IC50 (Rat NPY5 receptor [2]; rNPY5 IC50, [125I]PYY binding) [µM]",IC50 (Y2 receptor; [125I]PYY binding) [µM],"IC50 (Human NPY5 receptor; hNPY5 IC50, [125I]PYY) [µM]","IC50 (Rat NPY5 receptor [2]; rNPY5 IC50, [125I]PYY) [µM]"
"CC(=O)NC1CCN(CC(=O)Nc2ccc(C3CCCCC3)cc2)C1.O=C(O)C(=O)O (centres unmarked) [Compound 293, 2-(3-Acetylamino-pyrrolidin-1-yl)-N-(4-cyclohexyl-phenyl)-acetamide; compound with oxalic acid]",–,0.19,> 5,0.17,> 5,> 5,122,–,–,–,–,–,–
"O=C(Nc1ccc(-c2ccccc2)cc1)C(c1ccccc1)N1CCC(n2c(=O)[nH]c3ccccc32)CC1 (centres unmarked) [Compound 312, N-Biphenyl-4-yl-2-[4-(2-oxo-2,3-dihydro-benzoimidazol-1-yl)-piperidin-1-yl]-2-phenyl-acetamide]",–,–,> 5,–,> 5,> 5,207 to 210,–,–,–,–,0.032,0.024
